“And” between values parts separate entries of the source, which are not always exact repeats. Equal entries are not always repeated.
Target: T1, 5-Lipoxygenase (5-LOX) (Homo sapiens, UniProt P09917)
T1 construct: Human peripheral blood mononuclear leukocytes (PBML) were isolated through a Ficoll-Paque density gradient; endogenous in cells; host or cells: human peripheral blood mononuclear leukocytes (PBML)
T1 sequence (P09917 1-674): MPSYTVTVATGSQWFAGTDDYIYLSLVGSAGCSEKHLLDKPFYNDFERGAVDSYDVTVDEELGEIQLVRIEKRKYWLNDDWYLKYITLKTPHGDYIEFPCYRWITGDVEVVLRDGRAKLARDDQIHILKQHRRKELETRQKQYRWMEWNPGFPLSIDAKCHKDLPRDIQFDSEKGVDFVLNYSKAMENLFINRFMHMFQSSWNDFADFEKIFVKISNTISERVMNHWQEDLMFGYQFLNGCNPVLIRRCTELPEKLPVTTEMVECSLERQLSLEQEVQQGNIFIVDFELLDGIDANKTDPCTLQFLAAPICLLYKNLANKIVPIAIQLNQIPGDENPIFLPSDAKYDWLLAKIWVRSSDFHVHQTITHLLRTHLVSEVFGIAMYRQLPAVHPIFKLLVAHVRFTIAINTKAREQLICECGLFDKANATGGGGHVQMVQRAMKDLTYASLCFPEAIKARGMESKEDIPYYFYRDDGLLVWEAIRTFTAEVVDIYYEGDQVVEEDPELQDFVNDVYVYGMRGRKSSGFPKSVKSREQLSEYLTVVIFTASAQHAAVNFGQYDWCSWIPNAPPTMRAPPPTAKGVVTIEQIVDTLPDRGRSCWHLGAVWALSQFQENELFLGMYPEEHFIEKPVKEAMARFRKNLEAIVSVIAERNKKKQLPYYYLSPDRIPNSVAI
Experiment: 5-Lipoxygenase inhibition assay, LTB4 by EIA in A23187-stimulated human PBML
Assay type: cell-based
Conditions: for Avg. % Inh.: average of duplicates; for % Inh. / Product (pg/well): single replicate
From the text: Methods employed in this example were adapted from the scientific literature to maximize reliability and reproducibility. […] 110-13 (2000).
In this study, the 5-LOX source was human peripheral blood mononuclear cells (PBMNC) and the substrate was arachidonic acid having a general reaction of: arachidonic acid →5-LOX→5-HPETE→LTB4. Human peripheral blood mononuclear leukocytes (PBML) were isolated through a Ficoll-Paque density gradient. The inhibiting agent was processed Morinda citrifolia puree juice concentrate. Morinda citrifolia was pre-incubated with PBML (5×10^6 cell/ml) in HBSS buffer pH 7.4 at 37° C. for 15 minutes. […] Following neutralization with NaOH and centrifugation, the supernatant LTB4 is measured using an EIA kit.
The supernatant sample was utilized in same assay and protocols as outlined in Example One above, wherein the brown substance obtained was substituted for Morinda citrifolia puree juice.

## CC(Cc1ccc(O)c(O)c1)C(C)Cc1ccc(O)c(O)c1 (stereo not drawn) [NDGA, nordihydroguaretic acid]
Conc. 0.03 uM
  Avg. % Inh.: 6%
  % Inh.: 3.6% and 9.2%
  Product (pg/well): 3608.3 pg/well and 3403.4 pg/well
Conc. 0.1 uM
  Avg. % Inh.: 36%
  % Inh.: 36.1%
  Product (pg/well): 2433.3 pg/well
Conc. 0.3 uM
  Avg. % Inh.: 73%
  % Inh.: 73.5% and 72.8%
  Product (pg/well): 1083.1 pg/well and 1106.1 pg/well
Conc. 1 uM
  Avg. % Inh.: 97%
  % Inh.: 97.0% and 97.4%
  Product (pg/well): 233.7 pg/well and 217.9 pg/well
Conc. 3 uM
  Avg. % Inh.: 100%
  % Inh.: 99.7% and 100.8%
  Product (pg/well): 134.9 pg/well and 94.3 pg/well

From patent US20070281903A1, “Morinda Citrifolia-Based Formulation 5-LOX And 15-LOX” (priority 2006, published 2007)
